From US10682353B2, “Varlitinib for use in the treatment of resistant or refractory cancer” (ASLAN Pharmaceuticals PTE LTD, priority 2015, dated 2020)

Key:
Assay type in all cases: in vivo, human
[1] = test system: intrahepatic cholangiocarcinoma, stage IV; assay: Example 3: Varlitinib 400 mg bi-daily orally and FOLFOX in a patient (ASLAN001-002SG study)
Excerpt: They received left hemihepatectomy followed by 6 cycles of adjuvant gemcitabine and cisplatin.

[2] = test system: stage IV cholangiocarcinoma EGFR positive (3+) cancer; assay: Example 1: Varlitinib 400 mg bi-daily monotherapy in a patient; details: after treatment cycle 6, Varlitinib 400 mg bi-daily monotherapy
[3] = test system: stage IV, extra-hepatic cholangiocarcinoma; assay: Example 2: Varlitinib 400 mg bi-daily combination therapy followed by monotherapy in a patient
Procedure: A person, stage IV, extra-hepatic cholangiocarcinoma, prior treatment: • Whipple • Radiotherapy • Gemzar/cisplatin for 6 months For the first 6 cycles, the patient received Varlitinib 400 mg BID continuously with cisplatin (80 mg/m^2 every 3 weeks) and capecitabine (1000 mg/m2 BID, 2 weeks on, 1 week off). […] In summary, the patient received varlitinib with chemo for 6 cycles and varlitinib monotherapy for another 4 cycles (3 weeks per cycle).

## C[C@@H]1COC(Nc2ccc3ncnc(Nc4ccc(OCc5nccs5)c(Cl)c4)c3c2)=N1 [Varlitinib, (R)—N4-[3-Chloro-4-(thiazol-2-ylmethoxy)-phenyl]-N6-(4-methyl-4,5,-dihydro-oxazol-2-yl)-quinazoline-4,6-diamine]
[1]; Varlitinib 400 mg BID with mFOLFOX6 for 9 cycles, then 9 cycles varlitinib monotherapy (2 weeks per cycle), one patient
  reduction in tumor size as the best response from baseline: 53%
[1]; after cycle 18, 9 cycles Varlitinib 400 mg BID and mFOLFOX6, then 9 cycles varlitinib monotherapy
  latest tumor assessment (response): partial response
[2]; fell from ~900 U/ml
  tumour marker CA 19-9: ~250 U/ml
[2]; one patient progressive after gemcitabine and cisplatin/5-FU
  liver tumours decreased in size: up to 23%
[3]; end of cycle 8, varlitinib monotherapy after 6 cycles of combination with cisplatin and capecitabine
  reduction in tumour size (tumor scan): 87%
[3]; end of cycle 10, on varlitinib monotherapy, criterion >20% increase against nadir
  image scan outcome based on RECIST: disease progression
